We go through 12 compounds from patent US12171755B2, “PAPD5 inhibitors and methods of use thereof” (Children's Medical Center Corporation, priority 2017, dated 2024).

This experiment has as its target T1, PAPD5 (Homo sapiens, UniProt Q8NDF8).
T1 construct: made in house
Description: High-throughput luminescence (KinaseGlo) RNA polyadenylation assay, ATP utilization by recombinant PAPD5. The class given is biochemical. The note with it: Table 4 (entries of Table 5), ratio of luminescence with inhibitor to DMSO; for Fold-change determined at compound concentration 33 μM: 33 μM compound; for Fold-change determined at compound concentration 100 μM: 100 μM compound, higher = higher inhibition; for Fold-change determined at compound concentration 10 μM: 10 μM compound. Put shortly:
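Values are ratios of inhibitor to DMSO luminescence, so larger numbers mean less ATP consumed. Screening was run in duplicate with a 2 h room-temperature reaction of recombinant PAPD5, ATP and oligo RNA substrate plus compound. Residual ATP was detected after a 10 min KinaseGlo step.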
For orientation: In Kinase-Glo more light means more ATP remaining.

T1 sequence (Q8NDF8 68-698 isoform Q8NDF8-5): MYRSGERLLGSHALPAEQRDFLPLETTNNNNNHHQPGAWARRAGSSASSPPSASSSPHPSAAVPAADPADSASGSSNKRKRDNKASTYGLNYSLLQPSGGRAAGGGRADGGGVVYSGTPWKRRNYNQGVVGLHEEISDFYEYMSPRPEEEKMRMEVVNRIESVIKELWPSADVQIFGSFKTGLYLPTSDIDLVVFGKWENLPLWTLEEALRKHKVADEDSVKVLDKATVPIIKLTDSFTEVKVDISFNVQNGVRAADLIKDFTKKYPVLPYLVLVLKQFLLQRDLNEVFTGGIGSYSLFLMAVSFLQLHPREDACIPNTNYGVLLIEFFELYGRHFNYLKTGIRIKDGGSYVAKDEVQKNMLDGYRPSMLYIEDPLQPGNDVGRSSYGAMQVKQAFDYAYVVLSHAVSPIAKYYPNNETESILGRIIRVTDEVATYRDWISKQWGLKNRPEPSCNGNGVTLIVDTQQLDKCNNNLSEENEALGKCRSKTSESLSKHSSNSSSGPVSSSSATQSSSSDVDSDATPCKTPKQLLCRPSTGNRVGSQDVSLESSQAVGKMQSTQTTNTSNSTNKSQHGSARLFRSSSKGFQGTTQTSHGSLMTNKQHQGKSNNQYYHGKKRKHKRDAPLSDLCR

With `Cc1cc(C)c2c(=O)cc(C(=O)Nc3ccc(S(=O)(=O)Nc4onc(C)c4C)cc3)oc2c1` [Entry 115, N-[4-[(3,4-dimethyl-1,2-oxazol-5-yl)sulfamoyl]phenyl]-5,7-dimethyl-4-oxochromene-2-carboxamide], the “Fold-change determined at compound concentration 33 μM” value is 1.316 and the “Fold-change determined at compound concentration 100 μM” value was 1.777.

Turning to `Cc1ccc2c(=O)cc(C(=O)Nc3nnc(C)s3)oc2c1` [Entry 116, 7-methyl-N-(5-methyl-1,3,4-thiadiazol-2-yl)-4-oxo-4H-chromene-2-carboxamide], the “Fold-change determined at compound concentration 33 μM” value came out at 1.459 and the “Fold-change determined at compound concentration 100 μM” value stood at 2.138.

Turning to `Cc1cccc2c(=O)cc(C(=O)Nc3nnc(C(C)C)s3)oc12` [Entry 117, 8-methyl-4-oxo-N-(5-propan-2-yl-1,3,4-thiadiazol-2-yl)chromene-2-carboxamide], the “Fold-change determined at compound concentration 33 μM” value turned out to be 1.177 and the “Fold-change determined at compound concentration 100 μM” value is reported as 1.444.

As for `O=c1oc2cc(O)c(O)cc2c2c1CCCC2` [Entry 118, 2,3-dihydroxy-7,8,9,10-tetrahydro-6H-benzo[c]-chromen-6-one], the “Fold-change determined at compound concentration 33 μM” value worked out at 1.195 and the “Fold-change determined at compound concentration 100 μM” value came out at 1.615.

Take `CCn1cnc2c(=O)oc3ccc(S(=O)(=O)Nc4ccc(OC)cc4)cc3c21` [Entry 119, 1-ethyl-N-(4-methoxyphenyl)-4-oxochromeno[3,4-d]imidazole-8-sulfonamide]: the “Fold-change determined at compound concentration 33 μM” value stood at 1.319 and the “Fold-change determined at compound concentration 100 μM” value is recorded as 1.366.

`Cc1nnc(NC(=O)c2cc(=O)c3cc(F)ccc3o2)s1` [Entry 120, 6-fluoro-N-(5-methyl-1,3,4-thiadiazol-2-yl)-4-oxo-4H-chromene-2-carboxamide]: the “Fold-change determined at compound concentration 33 μM” value is reported as 1.1 and the “Fold-change determined at compound concentration 100 μM” value is 1.381.

Turning to `CC(C)c1nnc(NC(=O)c2cc(=O)c3ccc(Br)cc3o2)s1` [Entry 121, 7-bromo-4-oxo-N-(5-propan-2-yl-1,3,4-thiadiazol-2-yl)chromene-2-carboxamide], the “Fold-change determined at compound concentration 33 μM” value is 1.118 and the “Fold-change determined at compound concentration 100 μM” value was found to be 1.26.

Regarding `Cc1cc2oc(C(=O)Nc3nnc(C(C)C)s3)cc(=O)c2cc1C` [Entry 122, 6,7-dimethyl-4-oxo-N-(5-propan-2-yl-1,3,4-thiadiazol-2-yl)chromene-2-carboxamide], the “Fold-change determined at compound concentration 33 μM” value is listed as 1.134 and the “Fold-change determined at compound concentration 100 μM” value is given as 1.377.

On to `CCc1nnc(NC(=O)c2cc(=O)c3cc(C)c(C)cc3o2)s1` [Entry 123, N-(5-ethyl-1,3,4-thiadiazol-2-yl)-6,7-dimethyl-4-oxo-4H-chromene-2-carboxamide], for which the “Fold-change determined at compound concentration 10 μM” value turned out to be 1.211, the “Fold-change determined at compound concentration 33 μM” value is on record as 1.528 and the “Fold-change determined at compound concentration 100 μM” value was 2.189.

Consider `CCSc1nnc(NC(=O)c2cc(=O)c3cc(C)c(C)cc3o2)s1` [Entry 124, N-(5-ethylsulfanyl-1,3,4-thiadiazol-2-yl)-6,7-dimethyl-4-oxochromene-2-carboxamide], for which the “Fold-change determined at compound concentration 10 μM” value stood at 1.241, the “Fold-change determined at compound concentration 33 μM” value was found to be 1.437 and the “Fold-change determined at compound concentration 100 μM” value is recorded as 1.858.

For the compound `CSc1nnc(NC(=O)c2cc(=O)c3cc(C)c(C)cc3o2)s1` [Entry 125, 6,7-dimethyl-N-[5-(methylsulfanyl)-1,3,4-thiadiazol-2-yl]-4-oxo-4H-chromene-2-carboxamide], the “Fold-change determined at compound concentration 33 μM” value was 1.147 and the “Fold-change determined at compound concentration 100 μM” value amounted to 1.444.

In the case of `Cc1ccc2c(=O)cc(C(=O)Nc3nnc(CC(C)C)s3)oc2c1C` [Entry 126, 7,8-dimethyl-N-[5-(2-methylpropyl)-1,3,4-thiadiazol-2-yl]-4-oxochromene-2-carboxamide], the “Fold-change determined at compound concentration 33 μM” value amounted to 1.15 and the “Fold-change determined at compound concentration 100 μM” value is given as 1.302.
